Assay results from ChEMBL document CHEMBL1131031, “Indolequinone antitumor agents: reductive activation and elimination from (5-methoxy-1-methyl-4,7-dioxoindol-3-yl)methyl derivatives and hypoxia-selective cytotoxicity in vitro” (J Med Chem, 1998).

Experiments:
[1] = In vitro cytotoxicity against hypoxic V79-379A cells determined by MTT assay in the presence of nitrogen; format: functional, cell-based; conditions: Cricetulus griseus
[2] = In vitro cytotoxicity against […] V79-379A cells determined by MTT assay in the presence of air; format: functional, cell-based; conditions: Cricetulus griseus

| SMILES | IC50 [1] [µM] | IC50 [2] [µM] |
| --- | --- | --- |
| COC1=CC(=O)c2c(c(Cc3ccc(O)c(F)c3)c(C)n2C)C1=O | 280 | 470 |
| COC1=CC(=O)c2c(c(COC(C)=O)c(C)n2C)C1=O | 2.5 | 27 |
| COC1=CC(=O)c2c(c(COC(=O)c3ccccc3F)cn2C)C1=O | 0.04 | 0.5 |
| COC1=CC(=O)c2c(c(COC(=O)c3ccc(F)cc3)cn2C)C1=O | 0.05 | 0.7 |
| COC1=CC(=O)c2c(c(CO)cn2C)C1=O | 240 | 220 |
| COC1=CC(=O)c2c(c(CCl)cn2C)C1=O | 33 | 304 |
| COC1=CC(=O)c2c(c(COC(=O)c3ccccc3F)c(C)n2C)C1=O | 2 | 164 |
| COC1=CC(=O)c2c(c(COC(=O)c3ccccc3)cn2C)C1=O | 0.04 | 1.4 |
| COC1=CC(=O)c2c(c(COc3cccc(NC(C)=O)c3)c(C)n2C)C1=O | 0.04 | 3.7 |
| COC1=CC(=O)c2c(c(COC(N)=O)cn2C)C1=O | 0.04 | 3 |
| COC1=CC(=O)c2c(c(CO)c(C3CC3)n2C)C1=O | 820 | 540 |
| COC1=CC(=O)c2c(c(Cc3cc(F)ccc3O)c(C)n2C)C1=O | 110 | 200 |
| COC1=CC(=O)c2c(c(COC(=O)c3ccccc3)c(C)n2C)C1=O | 0.2 | 16 |
| COC1=CC(=O)c2c(c(COc3ccccc3)c(C)n2C)C1=O | 0.7 | 12 |
| COC1=CC(=O)c2c(c(CO)c(C)n2C)C1=O | 285 | 1080 |
| COC1=CC(=O)c2c(c(COC(=O)Cc3ccc(-c4ccccc4)cc3)c(C)n2C)C1=O | 0.66 | 14.1 |
| COC1=CC(=O)c2c(c(COC(N)=O)c(C)n2C)C1=O | 0.3 | 25 |
| COC1=CC(=O)c2c(c(COCc3ccccc3)c(C)n2C)C1=O | 410 | 225 |
| COC1=CC(=O)c2c(c(COc3c(Cl)cc(Cl)cc3Cl)cn2C)C1=O | 0.08 | 0.7 |
| COC1=CC(=O)c2c(c(COc3ccc(F)cc3)c(C)n2C)C1=O | 0.85 | 31 |
| COC1=CC(=O)c2c(c(COC(=O)c3ccccc3)c(C3CC3)n2C)C1=O | 1 | 198 |
| COC1=CC(=O)c2c(c(COC(=O)c3ccc(F)cc3)c(C)n2C)C1=O | 0.3 | 27 |
| CCOC(=S)SCc1c2c(n(C)c1C)C(=O)C=C(OC)C2=O | 3 | 67 |
